Data on two compounds can be found in article PMC10138654, “Structural Insights into M1 Muscarinic Acetylcholine Receptor Signaling Bias between Gαq and β-Arrestin through BRET Assays and Molecular Docking” (International Journal of Molecular Sciences, 2023).

The target in assay [1] is T1, M1mAChR (Homo sapiens, UniProt P11229).
T1 construct: host or cells: HEK-293T
In words: cell-based. The conditions noted are these: for EC50: HEK293T cells.
Target sequence in this assay (P50148 whole entry partner, one chain of several): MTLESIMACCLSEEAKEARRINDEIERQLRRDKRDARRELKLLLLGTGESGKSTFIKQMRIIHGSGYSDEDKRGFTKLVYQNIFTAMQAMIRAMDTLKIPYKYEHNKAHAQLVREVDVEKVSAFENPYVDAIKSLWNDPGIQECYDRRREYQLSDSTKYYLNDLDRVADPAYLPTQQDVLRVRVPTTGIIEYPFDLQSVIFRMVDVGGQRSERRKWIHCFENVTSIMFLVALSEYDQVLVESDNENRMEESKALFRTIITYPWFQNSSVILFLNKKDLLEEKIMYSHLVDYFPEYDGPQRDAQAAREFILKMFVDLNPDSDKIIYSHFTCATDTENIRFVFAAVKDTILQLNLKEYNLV
Target sequence in this assay (P62879 2-340 partner limits assumed, one chain of several): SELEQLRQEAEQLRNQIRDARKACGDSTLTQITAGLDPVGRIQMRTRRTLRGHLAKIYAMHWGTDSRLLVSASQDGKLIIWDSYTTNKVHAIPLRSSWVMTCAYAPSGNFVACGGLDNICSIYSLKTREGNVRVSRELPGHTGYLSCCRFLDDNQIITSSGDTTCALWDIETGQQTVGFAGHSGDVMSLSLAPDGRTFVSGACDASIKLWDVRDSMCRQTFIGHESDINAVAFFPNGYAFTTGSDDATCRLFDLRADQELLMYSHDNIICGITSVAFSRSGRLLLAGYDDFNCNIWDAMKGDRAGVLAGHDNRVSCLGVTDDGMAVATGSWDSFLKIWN
Target sequence in this assay (P59768 2-68 partner limits assumed, one chain of several): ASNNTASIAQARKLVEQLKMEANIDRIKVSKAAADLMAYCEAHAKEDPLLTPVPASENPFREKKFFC

Assay [2] addresses T1, M1mAChR. In words: cell-based.
Target sequence in this assay (P32121 whole entry partner, one chain of several): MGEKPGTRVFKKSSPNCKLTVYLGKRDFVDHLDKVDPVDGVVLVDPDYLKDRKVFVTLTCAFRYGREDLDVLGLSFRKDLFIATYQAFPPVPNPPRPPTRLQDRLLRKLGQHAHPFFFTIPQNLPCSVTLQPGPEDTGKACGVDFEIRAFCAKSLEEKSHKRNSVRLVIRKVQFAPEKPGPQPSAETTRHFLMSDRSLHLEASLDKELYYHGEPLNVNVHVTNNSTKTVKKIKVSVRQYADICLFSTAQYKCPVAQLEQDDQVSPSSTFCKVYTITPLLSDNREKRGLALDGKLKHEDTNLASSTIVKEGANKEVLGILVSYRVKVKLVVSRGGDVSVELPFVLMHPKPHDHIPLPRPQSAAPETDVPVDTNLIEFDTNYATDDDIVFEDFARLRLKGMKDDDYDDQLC
Assay [3] deals with T2, M1mAChR (Homo sapiens, UniProt P11229).
T2 sequence (P11229 1-460): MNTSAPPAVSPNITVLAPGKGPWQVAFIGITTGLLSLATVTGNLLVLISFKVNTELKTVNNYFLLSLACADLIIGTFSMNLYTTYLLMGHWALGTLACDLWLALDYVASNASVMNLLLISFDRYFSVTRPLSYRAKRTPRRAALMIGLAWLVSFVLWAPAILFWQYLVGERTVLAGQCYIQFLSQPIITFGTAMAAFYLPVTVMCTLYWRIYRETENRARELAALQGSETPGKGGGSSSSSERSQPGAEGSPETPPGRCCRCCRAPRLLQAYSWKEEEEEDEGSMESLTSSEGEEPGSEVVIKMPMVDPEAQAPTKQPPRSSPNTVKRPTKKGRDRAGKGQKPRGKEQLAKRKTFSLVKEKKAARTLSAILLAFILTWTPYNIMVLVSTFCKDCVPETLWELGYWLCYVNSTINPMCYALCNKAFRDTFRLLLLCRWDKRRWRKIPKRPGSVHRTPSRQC
Nature of the assay: cell-based. Particulars: for EC50: CHO-M1 cells, unit inferred, read-out: EC50, Fluo4-AM calcium, printed in Figure 6 panels B-G. As for the experimental part:
The M1mAChR receptor primarily couples with Gαq, which connects it to several signaling pathways, such as PLC (phospholipase C, PLC), IP3 (inositol triphosphate, IP3), DAG (diacylglycerol, DAG), PKC (protein kinase C, PKC), and calcium signaling. Additionally, the Gαq-PLC signaling pathway plays a role in the activation of cAMP ([…], cAMP) via IP3-calcium release and calmodulin [9].
The influx of intracellular calcium was determined using Fluo4-AM (DOJINDO, Tonomachi, Japan, Cat. No.F311). CHO-M1 cells were seeded on 96-well plates at a density of 40,000 cells/well. The cells were treated with 5 µM of Fluo4-AM in 5 mM of CaCl2 buffer and incubated for 30 min at 37 °C in complete darkness.

For assay [4], the target named is T2, M1mAChR. In words: cell-based. Particulars: for EC50: CHO-M1 cells, unit inferred, read-out: EC50, β-arrestin2 recruitment by FRET, printed in Figure 6 panels I-N. As for the experimental part:
To further analyze the signaling bias of the agonists, a β-arrestin recruitment kit was utilized based on HTRF (Homogeneous Time Resolved Fluorescence, HTRF) technology. The interaction between native β-arrestin2 and AP2 was detected using a Europium cryptate-labeled AP2 (Adaptin2, AP2) antibody (Europium donor) and a d2-labeled β-arrestin2 antibody (acceptor) (Figure 6H).
We used the β-arrestin2 recruitment KIT test (PerkinElmer, Waltham, MA, USA, Cat. No. 62BDBAR2PEB). Following 24 h of incubation, the cell culture medium was removed, and Stimulation Buffer 4 was added to the negative control group and the blank group, while a diluted agonist was added to the agonist group, at a volume of 100 µL for each group. The plates were then sealed and allowed to incubate at room temperature for 15 min. Then, we removed the Stimulation Buffer 4 from the wells and added 30 µL of Stabilization Buffer 1, sealed the plate, and incubated it at room temperature for 15 min. Afterward, Stabilization Buffer 1 was removed, and the wells were washed three times with 100 µL of Wash Buffer 1. Following that, 100 µL of pre-mixed d2 and Eu cryptate antibodies were added to the wells, and the plates were sealed and incubated overnight at room temperature. Finally, the plates were read using an HTRF-compatible reader.

For assay [5], the target named is T1, M1mAChR. The format is cell-based. The conditions noted are these: Scopolamine 100 μM; agonist 1 μM (Pilocarpine 300 μM); mean response 100 s before vs after antagonist. The protocol:
(§1) Incubate the cells for another 24 h at 37 °C with 5% CO2 until the cell density reaches 70%~80%. To transfect the cells, use expression constructs (total 0.1 μg/well) with a 1:1:1:1 DNA ratio of M1-RLuc8/Gαq/Gβ2/Gγ2-mVenus, or a 1:2 DNA ratio of M1-RLuc8/β-arrestin2-mVenus, and LipofectamineTM 3000 (0.15 µL/well) reagents (Thermo Scientific, Waltham, MA, USA, Cat. No. R25001). Incubate the cells for another 24 h at 37 °C with 5% CO2. […] Then, add 10 µL of freshly prepared luciferase substrate (here, Coelenterazine h was added at a final concentration of 5 μM, Hangzi Biotechnology, Shanghai, China) and mix the solution.
Target sequence in this assay (P50148 whole entry partner, one chain of several): as the sequence (P50148 whole entry partner, one chain of several) above
Target sequence in this assay (P62879 2-340 partner limits assumed, one chain of several): as the sequence (P62879 2-340 partner limits assumed, one chain of several) above
Target sequence in this assay (P59768 2-68 partner limits assumed, one chain of several): as the sequence (P59768 2-68 partner limits assumed, one chain of several) above

Assay [6] addresses T1, M1mAChR. The format is cell-based. The protocol:
The kinetic response of the agonists to β-arrestin recruitment was analyzed.
The mean response over 100 s before and after the injection of the antagonist was also analyzed.
as §1
Target sequence in this assay (P32121 whole entry partner, one chain of several): as the sequence (P32121 whole entry partner, one chain of several) above

Assay [7] has as its target T2, M1mAChR. The format is cell-based. Particulars: BRET assays. As for the experimental part:
The potencies and efficacies of Gαq and β-arrestin2 were verified using BRET assays, as well as commercial methods, to monitor G protein binding and β-arrestin recruitment (refer to Figure 7). […] The BRET concentration–response curves were analyzed by either conducting normalization to a reference agonist for each experiment or by analyzing them as raw net BRET (fit Emax-fit baseline). The EC50 and Emax values were estimated by fitting all biological replicates simultaneously. […] To estimate the putative signaling bias between the Gαq and β-arrestin pathways, the ΔΔlog(τ/KA) method was used, based on the following equation: bias = 10^ΔΔlog(τ/KA) Gαq−β-arrestin [46], which is derived from the RAi equation [29]. Here, ΔΔlog (τ/KA) Gαq−β-arrestin = Δlog(τ/KA) Gαq − Δlog(τ/KA) β-arrestin. For all statistically analyzed studies, the experiments were performed at least three times independently. The experiments were carried out in a randomized manner. The results are presented as the mean ± SEM. Statistical analysis was performed with a one-way analysis of variance (ANOVA). A value of p < 0.05 was considered statistically significant.

Assay [8] addresses T2, M1mAChR. The format is cell-based. Particulars: calcium assay and commercial β-arrestin recruitment method.
A further assay deals with muscarinic. Also on record: method as in PMID 22948826. The conditions noted are these: times more potent than ACh; cited from earlier work.
Setting [9] is: dose-response curve, unit inferred, read-out: EC50, Gαq interaction with M1mAChR (BRET), in Figure 2 panels.
[10] abbreviates: read-out: EC50, Gαq binding to M1mAChR (BRET).
Setting [11] is: relative intrinsic activity, relative to ACh.
Setting [12] is: dose-response curve, unit inferred, read-out: EC50, β-arrestin2 interaction with M1mAChR (BRET), Figure 4.
Setting [13] is: read-out: EC50, β-arrestin2 binding to M1mAChR (BRET).

Where two headings read alike, the source gives them in different places.

In the case of `C[N+](C)(C)CC#CCOC1=NOCC1` [Iperoxo], the EC50 at M1mAChR [1] (setting [9]) came to 24.8 nM; at M1mAChR [1] (setting [10]), 24.8 nM; at M1mAChR [2] (setting [12]) it was 72 nM; at M1mAChR [2] (setting [13]), 72 nM; on M1mAChR [3], 12.5 nM; on M1mAChR [4] it was 646 nM. Besides, the “Gαq (BRET) (Δlog (τ/KA))” value on M1mAChR [1] (setting [11]) is given as 1.56 ± 0.090. The “β-Arrestin (BRET) (Δlog (τ/KA))” value on M1mAChR [2] (setting [11]) is listed as 1.27 ± 0.020. In addition, on M1mAChR [3] (setting [11]), the “Gαq (Fluo4-AM) (Δlog (τ/KA))” value came out at 0.98 ± 0.003. For the same compound, the “β-Arrestin (FRET) (Δlog (τ/KA))” value at M1mAChR [4] (setting [11]) is −0.03 ± 0.040. Besides, at M1mAChR [5], the “decrease of agonist-induced Gαq BRET response by Scopolamine” value is recorded as “approximately 41%”. In addition, on M1mAChR [6], the “decrease of agonist-induced β-arrestin2 BRET response by Atropine” value was found to be 60%. For the same compound, the “decrease of agonist-induced β-arrestin2 BRET response by Scopolamine” value on M1mAChR [6] is 54%. Besides, the “∆∆RAi (Gαq − β-arrestin2)” value on M1mAChR [7] worked out at 0.3. The “bias factor (Gαq vs β-arrestin2)” value on M1mAChR [7] (bias = 10^ΔΔlog(τ/KA) Gαq−β-arrestin, relative to ACh) was determined as 2. Also, the “signaling bias by commercial methods” value on M1mAChR [8] was “predominantly biased towards Gαq”. In the assay on muscarinic, the “potency relative to ACh” value is on record as “approximately 100 times”.
In the case of `C[N+](C)(C)CC#CCOC(=O)Nc1cccc(Cl)c1` [McN-A-343], the EC50 was 11.1 nM on M1mAChR [1] (setting [9]); 11 nM at M1mAChR [1] (setting [10]); 981 nM at M1mAChR [2] (setting [12]); 980 nM on M1mAChR [2] (setting [13]); 718 nM on M1mAChR [3]; 1550 nM on M1mAChR [4].
